Legend:
[1] = In vivo determination of the influence on the resting tone of the lower oesophageal sphincter (pull-through manometry); set-up: species or system Beagle-Hunden
From the text: 3. In-vivo-Bestimmung des Einflusses der Substanzen auf den Ruhe-Tonus des unteren Oesophagus Sphincter.
Diese Bestimmung wird an männlichen, wachen, nüchternen Beagle-Hunden vorgenommen, denen vor Versuchsbeginn je eine Oesophagus-Fistel und eine Duodenal-Kanüle gelegt worden sind. Der Druck des unteren Oesophagus Sphincter wird mittels eines perfundierten Kathetersystems mit seitlicher Öffnung, das mit einem Druckaufnehmer und einem Recorder verbunden ist, gemessen. Der Katheter wird über die Oesophagus-Fistel in den Magen geführt und dann langsam manuell zurückgezogen (= Durchzugsmanometrie). Beim Passieren des Katheterteils mit der seitlichen Öffnung durch die Hochdruckzone des unteren Oesophagus Sphincter wird ein Peak registriert. Aus diesem Peak wird der Druck in mm Hg bestimmt.
Auf diese Weise wird zunächst als Kontrollwert der basale Druck des Oesophagus Sphincter bestimmt. Anschließend wird die Testsubstanz oral appliziert und nach 15 min. wird der Druck am unteren Oesophagus Sphincter in 2-Minuten-Intervallen über einen Zeitraum von 60 min. gemessen. Die Steigerung des Druckes nach Testsubstanzgabe im Vergleich zu dem vorbestimmten basalen Druck wird berechnet.
In diesem Test nahm der basale Tonus des Oesophagus Sphincter durch eine Dosis von 2,15 µMol/kg der Substanz des Beispiels 1 um 143 % zu. Dieser Effekt hielt während der gesamten Testdauer von 60 min. an.

[2] = In vivo determination of the influence on gastric tone (barostat, gastric volume at constant pressure after lipid-induced relaxation); set-up: species or system Beagle-Hunden
From the text: 2. In-vivo-Bestimmung des Einflusses der Substanzen auf den Magentonus
Der Magentonus spielt eine wichtige Rolle bei der Magenentleerung. Ein erhöhter Magentonus trägt zu einer beschleunigten Magenentleerung bei.
Der Einfluß von Substanzen auf den Magentonus wird an Beagle-Hunden mit Hilfe eines Barostaten bestimmt, welcher mit einem Kunststoffbeutel im Magen des Hundes verbunden ist und die Messung von Volumen oder Druck im Magen des Hundes ermöglicht. Mit dem Barostaten wird das Magenvolumen bei konstantem Druck im Magen oder der Magendruck bei konstantem Volumen im Magen bestimmt. Bei Erhöhung des Magentonus stellt man bei einem bestimmten Druck ein verringertes Magenvolumen fest und einen erhöhten Druck bei einem bestimmten Volumen. In dem zur Untersuchung der durch die Substanzen bewirkten Erhöhung des Magentonus verwendeten Testmodell wird die durch die Substanzen verursachte Magenvolumenänderung bei konstantem Druck gemessen. Der Magen der Versuchstiere wird durch Lipideinnahme relaxiert, d. h. der Magentonus sinkt, wodurch das Magenvolumen entsprechend zunimmt. Als Maß für die den Magentonus erhöhende Wirkung der Substanzen wird die nach Substanzeinnahme durch Wiederanstieg des Magentonus eintretende Reduktion des durch Lipidgabe vergrößerten Magenvolumens in % gemessen. […]

Motilin-Rezeptoren = molecular target: T1, Motilin-Rezeptoren (Oryctolagus cuniculus, UniProt G1T803); experiment: Binding of test substances to motilin receptors (displacement of 125I-labelled motilin, crude membrane preparation from rabbit antrum); set-up: species or system Kaninchen; conditions: displacement of iodinated motilin (50 pM), rabbit antrum membrane fraction, 60 min at 30 °C; calculated from IC50
T1 construct: Die so erhaltene Gewebefraktion, welche als "rohe Membranzubereitung" bezeichnet wird, wird für den Test eingesetzt; from tissue; host or cells: rabbit antrum freed of mucosa, crude membrane fraction
From the text: 1. Bestimmung des Bindungsvermögens der Testsubstanzen an Motilin-Rezeptoren.
Die Affinität der Verbindungen der Formel I an Motilin-Rezeptoren wird in vitro an einer Fraktion eines Gewebehomogenats aus dem Kaninchenantrum gemessen. Bestimmt wird die Verdrängung von radioaktiv markiertem jodiertem Motilin aus der Motilin-Rezeptor-Bindung durch die Testsubstanzen.
Die Rezeptor-Bindungsstudien werden nach einer Modifikation der Methode von Borman et al. (Regulatory Peptides 15 (1986), 143-153) durchgeführt. Zur Herstellung des ^125Jodmarkierten Motilins wird Motilin auf an sich bekannte Weise, z. B. analog der von Bloom et al. (Scand. J. Gastroenterol. 11 (1976) 47 - 52) beschriebenen Methode enzymatisch unter Verwendung von Lactoperoxidase jodiert.
Zur Gewinnung der in dem Test verwendeten Gewebehomogenatfraktion aus dem Kaninchenantrum wird das von Schleimhäuten befreite Antrum zerkleinert und im 10-fachen Volumen einer kalten Homogenisierungspufferlösung (50 mM Tris-HCl-Puffer, 250 mM Sucrose, 25 mM KCl, 10 mM MgCl2, pH 7,4) mit Zusatz von Inhibitoren (1 mM Jodacetamid, 1 µM Pepstatin, 0,1 mM Methylsulfonylfluorid, 0,1 g/l Trypsininhibitor, 0,25 g/l Bacitracin) mit einem Homogenisator 15 sec. bei 1500 Umdrehungen pro Minute homogenisiert. […]

T1 sequence (G1T803 1-400): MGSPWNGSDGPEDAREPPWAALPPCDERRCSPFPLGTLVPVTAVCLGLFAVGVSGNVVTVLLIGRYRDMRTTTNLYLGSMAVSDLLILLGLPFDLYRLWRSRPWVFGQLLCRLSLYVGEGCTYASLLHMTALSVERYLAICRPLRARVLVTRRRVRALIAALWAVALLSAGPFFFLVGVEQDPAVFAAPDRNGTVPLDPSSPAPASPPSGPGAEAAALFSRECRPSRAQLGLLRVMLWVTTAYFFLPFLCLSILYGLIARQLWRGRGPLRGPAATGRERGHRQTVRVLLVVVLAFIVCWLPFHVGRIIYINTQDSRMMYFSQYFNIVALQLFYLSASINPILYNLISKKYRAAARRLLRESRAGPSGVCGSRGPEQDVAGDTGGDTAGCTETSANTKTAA

SMILES | Duration of the effect on the tone of the Oesophagus Sphincter ([1]; 2,15 µMol/kg oral, effect lasted for the whole test duration) [min] | Zunahme des basalen Tonus des Oesophagus Sphincter ([1]; conscious fasted male Beagle dogs, 2,15 µMol/kg oral, versus basal pressure) [%] | Reduktion des nach Lipidgabe vergrößerten Magenvolumens ([2]; Beagle dogs, 2,15 µmol/kg i.d., constant pressure) | Reduktion des Magenvolumens (Lipid-induzierte Relaxierung des Magenvolumens) ([2]; Beagle dogs, 2,15 µmol/kg oral) | IC50 (Motilin-Rezeptoren) [nM]
CO[C@]1(C)C[C@H](O[C@H]2[C@H](C)[C@@H](O[C@@H]3O[C@H](C)C[C@H](N(C)C(C)C)[C@H]3O)[C@@]3(C)CC(C)=C(O3)[C@H](C)[C@H](C(C)=O)OC(=O)[C@@H]2C)O[C@@H](C)[C@@H]1O [Beispiel 1, (2R,3S,4S,5R,6R,10R,11R]-3-[(2,6-Didesoxy-3-C-methyl-3-O-methyl-α-L-ribohexopyranosyl)-oxy]-5-[(3,4,6-tridesoxy-3-(N-methyl-N-isopropylamino)-β-D-xylohexopyranosyl)-oxy]-2,4,6,8,10-pentamethyl-11-acetyl-12,13-dioxabicyclo[8.2.1]-tridec-8-en-1-on] | ≥ 60 | 143 | 59,5% | praktisch völlig verhindert | 9.77
CO[C@]1(C)C[C@H](O[C@H]2[C@H](C)[C@@H](O[C@@H]3O[C@H](C)C[C@H](N(C)C(C)C)[C@H]3OC(C)=O)[C@@]3(C)CC(C)=C(O3)[C@H](C)[C@H](C(C)=O)OC(=O)[C@@H]2C)O[C@@H](C)[C@@H]1O [Beispiel 2, (2R,3S,4S,5R,6R,10R,11R)-3-[(2,6-Didesoxy-3-C-methyl-3-O-methyl-α-L-ribohexopyranosyl)-oxy]-5-[(3,4,6-tridesoxy-2-O-acetyl-3-(N-methyl-N-isopropylamino)-β-D-xylohexopyranosyl)-oxy]-2,4,6,8,10-pentamethyl-11-acetyl-12,13-dioxabicyclo-[8.2.1]tridec-8-en-1-on] |  |  |  |  | 17.8

Source: patent publication EP0937734B1, “11-Acetyl-12,13-dioxabicyclo ¬8.2.1 tridecenone derivatives, process for making them and pharmaceutical compositions containing them” (Abbott Products GmbH, priority 1998, dated 1999)
